Assay [1] concerns the target T1, Gamma-aminobutyric acid receptor subunit alpha-2 (Homo sapiens, UniProt P47869).
T1 sequence (P47869 whole entry): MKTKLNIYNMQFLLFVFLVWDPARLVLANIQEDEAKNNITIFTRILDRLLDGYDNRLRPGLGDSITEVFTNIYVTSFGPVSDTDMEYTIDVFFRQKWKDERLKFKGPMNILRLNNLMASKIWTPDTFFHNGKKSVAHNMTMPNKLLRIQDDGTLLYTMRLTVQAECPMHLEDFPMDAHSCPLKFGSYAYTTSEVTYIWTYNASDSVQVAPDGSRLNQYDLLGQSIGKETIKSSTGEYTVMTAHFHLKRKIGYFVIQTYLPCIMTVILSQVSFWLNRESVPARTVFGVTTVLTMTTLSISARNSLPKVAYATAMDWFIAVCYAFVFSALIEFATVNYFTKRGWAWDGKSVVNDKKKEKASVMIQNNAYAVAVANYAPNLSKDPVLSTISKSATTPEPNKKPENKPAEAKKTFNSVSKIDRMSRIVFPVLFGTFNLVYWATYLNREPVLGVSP

Assay [2] concerns the target T2, Gamma-aminobutyric acid receptor subunit alpha-1 (Homo sapiens, UniProt P14867).
T2 sequence (P14867 whole entry): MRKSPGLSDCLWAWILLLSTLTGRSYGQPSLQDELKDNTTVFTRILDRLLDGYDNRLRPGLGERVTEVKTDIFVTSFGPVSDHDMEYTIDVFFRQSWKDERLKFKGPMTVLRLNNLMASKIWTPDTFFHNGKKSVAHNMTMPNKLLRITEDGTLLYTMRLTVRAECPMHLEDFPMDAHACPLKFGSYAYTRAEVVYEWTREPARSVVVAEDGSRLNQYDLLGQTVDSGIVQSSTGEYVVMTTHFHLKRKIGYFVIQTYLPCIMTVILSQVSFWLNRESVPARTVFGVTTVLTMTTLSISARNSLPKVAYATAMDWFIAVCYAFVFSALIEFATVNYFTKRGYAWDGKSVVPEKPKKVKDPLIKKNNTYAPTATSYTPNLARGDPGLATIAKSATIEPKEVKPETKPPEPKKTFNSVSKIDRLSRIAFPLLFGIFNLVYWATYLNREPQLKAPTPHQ

In assay [3] the target is T3, Gamma-aminobutyric acid receptor subunit alpha-3 (Homo sapiens, UniProt P34903).
T3 sequence (P34903 whole entry): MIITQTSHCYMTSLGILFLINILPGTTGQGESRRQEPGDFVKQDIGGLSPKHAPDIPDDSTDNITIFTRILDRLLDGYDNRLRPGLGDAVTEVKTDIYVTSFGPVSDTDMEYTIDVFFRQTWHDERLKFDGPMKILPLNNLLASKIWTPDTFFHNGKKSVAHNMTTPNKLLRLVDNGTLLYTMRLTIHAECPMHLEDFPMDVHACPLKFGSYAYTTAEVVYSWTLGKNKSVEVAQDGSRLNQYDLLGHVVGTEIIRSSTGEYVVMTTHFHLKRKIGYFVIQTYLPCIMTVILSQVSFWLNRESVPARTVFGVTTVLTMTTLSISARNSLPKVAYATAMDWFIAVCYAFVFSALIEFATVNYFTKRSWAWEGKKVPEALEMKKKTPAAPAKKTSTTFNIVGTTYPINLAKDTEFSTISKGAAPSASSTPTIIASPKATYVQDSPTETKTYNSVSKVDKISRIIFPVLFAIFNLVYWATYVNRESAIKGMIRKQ

“And” between values parts separate entries of the source, which are not always exact repeats. Equal entries are not always repeated.

Take `COC(=O)c1cc2c(cn1)[nH]c1ccccc12`: the Ki in assay [1] is 2.9 nM; in assay [2], 0.78 nM; in assay [3], 4.1 nM.
`Cc1nnc2ccc(-c3cccc(C(F)(F)F)c3)nn12`: the Ki in assay [1] is 2000 nM and 1740 nM; in assay [2], 405 nM and 108 nM; in assay [3], 1790 nM and 1620 nM.
Take `O=C1CN=C(c2ccccc2F)c2cc(Cl)ccc2N1CC(F)(F)F` [NSC_93250]: the Ki in assay [1] was determined as 236 nM; in assay [3] it was 205 nM.
`O=C1CN=C(c2ccccc2Cl)c2cc([N+](=O)[O-])ccc2N1` [5-(2-chlorophenyl)-7-nitro-1,3-dihydro-2H-1,4-benzodiazepin-2-one]: the figures for the Ki in assay [1], in assay [2] and in assay [3] were 1.7 nM, 1.27 nM and 2 nM, respectively.
For `CCc1c(C(=O)OC)ncc2[nH]c3cc(OC)c(OC)cc3c12` [NSC_104999] the same measures were 14.4 nM, 5.3 nM and 10.6 nM.

The Ki is a dissociation constant, usually derived from enzyme kinetics or from competition with a known ligand. High values mean weaker binding, low ones tighter binding.

Source of the values: BindingDB's records for doi:10.1126/science.2551039 (UniversitÄT Heidelberg, 1989).
